Measured values from patent US8183342B2, “Method of treating chemotherapy-induced thrombocytopenia” (Case Western Reserve University, priority 2007, dated 2012).
Entries after “also recorded” stand apart in the source; their conditions may differ. Blank lines part the entries; values can stand above or below the molecule they belong to. Where a SMILES comes first, the peptide text is derived from it. Where no end group is shown, it is not given here. The star is where a group is joined. Cbz = O=C(OCc1ccccc1)*; CH2F = FC*

Tests used:
[1] = system: platelet number in mouse peripheral blood; experiment: Platelet number in mouse peripheral blood after Etoposide; assay type: in vivo, C57BL/6J mice; details: Etoposide 150 mg/kg i.p., for 48 hrs
Protocol: Percentage of platelets in C57BL/6J mice compared to before treatment (100%). […] The statistical significance was determine by an unpaired student t test, *P<0.05, **P<0.01, ***, P<0.001.
Mouse blood (50-100 micro 1) was collected by heparin-coated capillary tube from tail, and the samples were incubated at room temperature for 1 hr before blood cell analysis using HEMA VET blood cell counter (Drew Scientific Inc. Oxford, Conn.). Each blood sample was measured twice, and the mean value of two measurements was used as one sample data (n=1).

cell membrane = experiment: Cell membrane permeability and retention of peptides in cells (description); assay type: cell-based; details: for cell membrane permeability: need of a cell delivery system
[2] = system: primary cultured mouse megakaryocytes; experiment: Platelet formation in vitro (Integrin αIIB positive platelet like particles, flow cytometry); assay type: cell-based; details: 48 h; VPTLK 200 μM; Z-VAD-fmk 200 and 400 μM; FIG. 5B
Protocol: After the pre-incubation with the peptides, 1 mM EDTA and 50 ng/ml prostaglandin E1 (Sigma) dissolved in ethanol were added to the cell culture before the centrifugation (700 g) at room temperature (RT) for 10 min. The platelets were washed with 300 μl of tyrodes buffer (pH 7.4) containing 2.5 mg/ml BSA and 1 mg/ml glucose. Then 2 μl of anti CD16/anti CD32 (BD Phaminogen™) was added to the platelets. The platelets were incubated at RT for 10 min. The platelets were divided into 3 sets, and 2 μl of rat IgG1 κ phycoerythrin (PE) labeled isotype control (Pharmingen) was added to one sample, and 2 μl of PE labeled antibody of intregin αIIB PE (Santa Cruz) was added to the other two samples. The platelets were incubated at RT for 30 min. Finally, 5 μl of Flow-Count™ Fluorospheres (Beackman-Coulter™) was added to the sample as platelet size marker. The platelets were detected with a FACScan flow cytometer system (Becton Dickinson; BD LSRII) using cellquest software. Each point in the figures showing percent apoptosis represents the mean±SEM of three experiments.

[3] = molecular target: T1, interaction of Ku70 and Bax (Homo sapiens, UniProt Q07812); experiment: Inhibition of the interaction of Ku70 and Bax in cell lysates; assay type: binding; details: negative controls; lysates from human cultured cells
T1 construct: lysates prepared from human cultured cells (HeLa cells and human kidney epithelial 293 cells); endogenous in cells; host or cells: HeLa cells; human kidney epithelial 293 cells
T1 sequence (Q07812 whole entry): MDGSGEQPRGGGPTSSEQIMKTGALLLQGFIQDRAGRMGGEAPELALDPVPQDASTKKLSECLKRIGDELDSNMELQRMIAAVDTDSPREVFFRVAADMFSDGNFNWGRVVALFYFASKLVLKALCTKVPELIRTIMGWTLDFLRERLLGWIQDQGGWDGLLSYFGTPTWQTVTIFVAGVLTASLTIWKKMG
Protocol: The Bax-binding domain in Ku70 comprises 6 amino acids (VPMLKE, SEQ ID NO: 1). This peptide (Ku70 Peptide) inhibits the interaction of Ku70 and Bax at the concentration of 20-80 μM in lysates prepared from human cultured cells (HeLa cells and human kidney epithelial 293 cells).

[4] = Preliminary toxicity study in mice; assay type: in vivo; details: 166.5 mg/kg i.p. and 16.5 mg/kg i.v.t.
Protocol: Importantly, we also obtained a preliminary result showing that BIP pre-treatment attenuated Etoposide-induced platelet decrease in mouse model. To develop the technology protecting megakaryocytes from chemotherapy, further extensive animal studies are needed. […] We examined doses of 166.5 mg/kg by i.p. and 16.5 mg/kg by i.v.t. […] The dose of 166.5 mg/kg is expected to achieve 300 μM of BIP in whole mouse body, if a mouse body is assumed to be filled with water. Probably, much less amount of BIP is sufficient to achieve effective doses (50-400 μM) (Sawada, M., P. Hayes, and S. Matsuyama, Cytoprotective membrane-permeable peptides designed from the Bax-binding domain of Ku70. Nat Cell Biol, 2003. 5(4): p. 352-7; Yoshida, T., et al., Bax-inhibiting peptide derived from mouse and rat Ku70. Biochem Biophys Res Commun, 2004. 321(4): p. 961-6; Yu, L. Y., et al., GDNF-deprived sympathetic neurons die via a novel nonmitochondrial pathway. J Cell Biol, 2003. 163(5): p. 987-97; Qin, Q., K. Patil, and S. C. Sharma, The role of Bax-inhibiting peptide in retinal ganglion cell apoptosis after optic nerve transection. Neurosci Lett, 2004. 372(1-2): p. 17-21) in blood or a specific tissue.

Molecule: COc1cc([C@@H]2c3cc4c(cc3[C@@H](O[C@@H]3O[C@@H]5CO[C@@H](C)O[C@H]5[C@H](O)[C@H]3O)[C@H]3COC(=O)[C@H]23)OCO4)cc(OC)c1O [Etoposide]
platelet count in the peripheral blood after Etoposide alone [1]: slight decrease of platelet count

Molecule: COC(=O)CC(NC(=O)C(C)NC(=O)C(NC(=O)OCc1ccccc1)C(C)C)C(=O)CF (stereo not drawn) [Z-VAD-fmk, Benzyloxycarbonyl-Val-Ala-Asp (OMe) fluoromethylketone] (Cbz-Val-Ala-Asp(OMe)-CH2F; configuration not given here)
platelet like particles formation [2]: slightly decreased platelet like particles formation

Molecule: Ku70 Peptide NC: the immediate next six amino acid sequence of Ku70, negative control (LGKFTV; UniProt P12956 573-578, looked up, fragment)
effect on the interaction of Ku70 and Bax [3]: did not affect the interaction of Ku70 and Bax

Molecule: VPMLKE [VPMLKE]
cell membrane permeability (cell membrane): a cell delivery system, such as liposomes as in the case of VPMLKE

Molecule: VPTLK [VPTLK]
survival after the injection [4]: more than 3 months | toxicity in mice ([4]; preliminary study, listed as BIP): did not show any toxicity; also recorded: did not show any sign of illness

The next lines start with the values.

retention in the cell (cell membrane): not retained in the cell | cell membrane permeability (cell membrane): cell membrane permeable
Molecule: CSCC[C@H](NC(=O)[C@@H]1CCCN1)C(=O)N[C@@H](CC(C)C)C(=O)N[C@@H](CCCCN)C(=O)O [PMLK] (H-PMLK-OH; N-terminus and C-terminus assumed)

cell membrane permeability (cell membrane): cell membrane permeable
Molecule: PMLKE [PMLKE]

cell membrane permeability (cell membrane): cell membrane permeable
Molecule: VPALR [VPALR]

cell membrane permeability (cell membrane): cell membrane permeable
Molecule: VPMLK [VPMLK]
